Data published in ChEMBL document CHEMBL1201862, “PubChem BioAssay data set” (2004).
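Each compound was tested at five concentrations against cells in 96-well plates for 48 hours. GI50: concentration for 50% inhibition of growth.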 Calls of active or inactive are those of the source. Cut-off read from the data, not from the text of the source: active = GI50 up to about 1.1 µM and inactive = higher.

What was measured:
Assay in all cases: inhibition of tumour cell growth, NCI panel, 48 h
[1] = system: 786-0
[2] = system: ACHN
[3] = system: BT-549
[4] = system: HCC 2998
[5] = system: HCT-116
[6] = system: HL-60
[7] = system: K562
[8] = system: MDA-MB-231
[9] = system: MDA-N
[10] = system: MOLT-4
[11] = system: NCI-H522
[12] = system: OVCAR-3
[13] = system: T47D
[14] = system: UO-31
[15] = system: HOP-92

Measured: GI50

COC(=O)c1cc(/C=C/C(=O)Cc2ccccc2)cn1S(=O)(=O)c1ccccc1
inactive: [1] > 100 µM | [2] > 100 µM | [3] > 100 µM | [4] > 100 µM | [5] > 100 µM | [6] > 100 µM | [7] > 100 µM | [8] > 100 µM | [9] > 100 µM | [10] > 100 µM | [11] > 100 µM | [12] > 100 µM | [13] > 100 µM | [14] > 100 µM

C[C@@H]1S[C@H](c2c(Cl)cccc2Cl)N2Cc3ccccc3N=C12
inactive: [1] > 100 µM | [2] > 100 µM | [3] > 100 µM | [4] > 100 µM | [5] 11.5 µM | [6] 48.4 µM | [15] > 100 µM | [7] > 100 µM | [8] > 100 µM | [9] > 100 µM | [10] > 100 µM | [12] > 100 µM | [13] > 100 µM | [14] > 100 µM

CC(C)C1C(=O)N(c2c(F)c(F)c(F)c(F)c2F)C(=S)N1CC[S+]([O-])c1ccccc1 (stereo not drawn)
inactive: [1] 16.9 µM | [2] 18.6 µM | [3] 15.9 µM | [4] 8.47 µM | [5] 18.8 µM | [6] 6.84 µM | [15] 9.77 µM | [7] 10.8 µM | [8] 16 µM | [9] 17.3 µM | [10] 21.2 µM | [11] 6.49 µM | [12] 16.6 µM | [13] 6.78 µM | [14] 14.8 µM

CC(=O)C1(Cc2cccc3ccccc23)S(=O)(=O)OCCOS1(=O)=O
inactive: [1] 23.5 µM | [2] 18.7 µM | [3] 16.9 µM | [4] 17.3 µM | [5] 19.6 µM | [6] 15.2 µM | [15] 15.5 µM | [7] 28.4 µM | [8] 15.8 µM | [9] 11.8 µM | [10] 29.1 µM | [11] 21.6 µM | [12] 19.7 µM | [13] 18.5 µM | [14] 15.8 µM

O=C(NCCN(CCNC(=O)c1cccc(=O)n1O)CCN(CCNC(=O)c1cccc(=O)n1O)CCNC(=O)c1cccc(=O)n1O)c1cccc(=O)n1O
inactive: [1] > 100 µM | [2] > 100 µM | [3] > 100 µM | [4] > 100 µM | [5] > 100 µM | [6] 44.2 µM | [15] > 100 µM | [7] > 100 µM | [8] > 100 µM | [9] > 100 µM | [11] > 100 µM | [12] > 100 µM | [13] > 100 µM | [14] > 100 µM

COc1c(/C=C/C=O)cc2c(c1OC)OCO2
inactive: [1] 54.1 µM | [2] 27.3 µM | [3] 47.3 µM | [4] 29.4 µM | [5] 34 µM | [6] 23.6 µM | [15] 61.5 µM | [8] 31.6 µM | [9] 24.5 µM | [10] 20.5 µM | [11] 78.3 µM | [12] 33.2 µM | [13] 23.3 µM | [14] 35.9 µM

CP(C)(=S)P(C)(C)=S
inactive: [1] > 100 µM | [2] > 100 µM | [3] > 100 µM | [4] > 100 µM | [5] > 100 µM | [6] > 100 µM | [7] > 100 µM | [8] > 100 µM | [9] > 100 µM | [10] > 100 µM | [11] > 100 µM | [13] > 100 µM | [14] > 100 µM

Cc1cc(NS(=O)(=O)c2ccc(Nc3c4ccccc4nc4ccc(C(=O)Nc5ccc(S(N)(=O)=O)cc5)cc34)cc2)no1
inactive: [1] > 100 µM | [2] > 100 µM | [3] > 100 µM | [4] > 100 µM | [5] > 100 µM | [6] > 100 µM | [15] > 100 µM | [7] > 100 µM | [8] > 100 µM | [9] > 100 µM | [10] > 100 µM | [11] > 100 µM | [12] > 100 µM | [13] 84.3 µM | [14] > 100 µM

CSc1nc(=O)n(CCC#N)nc1SC
inactive: [1] 25.3 µM | [2] 38.8 µM | [3] 23.5 µM | [4] 15 µM | [5] 16.5 µM | [6] 4.19 µM | [7] 25.6 µM | [8] 19.2 µM | [9] 20.4 µM | [10] 23.7 µM | [11] 25.6 µM | [12] 16.1 µM | [13] 24.3 µM | [14] 51.8 µM

COc1c2c(nc3ccccc13)-c1cc(C(CC(=O)OC(C)(C)C)C(=O)OC(C)C)c(CO)c(=O)n1C2 (stereo not drawn)
inactive: [1] 30.5 µM | [2] 21.9 µM | [3] > 66.4 µM | [4] > 100 µM | [5] 37 µM | [6] > 25.2 µM | [15] 40 µM | [7] 33.6 µM | [8] > 100 µM | [9] > 100 µM | [10] 3.67 µM | [11] 37.6 µM | [12] > 100 µM | [13] 22.1 µM | [14] > 36.7 µM

Cc1cccc(N(CCC#N)S(=O)(=O)c2ccccc2)c1
inactive: [1] > 100 µM | [2] > 100 µM | [3] > 100 µM | [4] > 100 µM | [5] > 100 µM | [6] > 100 µM | [15] > 100 µM | [7] > 100 µM | [8] > 100 µM | [9] > 100 µM | [10] > 100 µM | [11] > 100 µM | [12] > 100 µM | [13] > 100 µM | [14] 97.7 µM

CC1CC(=O)N2CCCNC2=C1C#N (stereo not drawn)
inactive: [1] > 100 µM | [3] > 100 µM | [4] > 100 µM | [5] > 100 µM | [6] > 10 µM | [7] > 100 µM | [8] > 100 µM | [9] > 100 µM | [10] > 100 µM | [11] > 100 µM | [12] > 100 µM | [13] > 100 µM | [14] > 100 µM

Cc1ccc([S+]([O-])c2sccc2C=O)cc1 (stereo not drawn)
inactive: [1] 32.1 µM | [2] 63 µM | [3] 25 µM | [4] 32.7 µM | [5] 16.4 µM | [6] 21 µM | [7] 48.6 µM | [8] 26.4 µM | [9] 27.6 µM | [10] 21.3 µM | [11] 41.1 µM | [12] > 10 µM | [13] 43.7 µM | [14] 70.1 µM

N#Cc1c(C#N)c(-c2ccccc2)n(Cc2ccccc2)c1N
inactive: [1] 35 µM | [2] > 100 µM | [3] > 100 µM | [4] > 100 µM | [5] > 100 µM | [6] > 100 µM | [7] > 100 µM | [8] 26.9 µM | [9] > 100 µM | [10] > 100 µM | [11] > 100 µM | [12] > 100 µM | [13] > 100 µM | [14] > 100 µM

COc1cc(/C=C2\C[C@H]3[C@@H]4CC=C5C[C@@H](OC(C)=O)CC[C@]5(C)[C@H]4CC[C@]3(C)\C2=N\O)cc(OC)c1OC
inactive: [1] 5.08 µM | [2] 3.75 µM | [3] 5.01 µM | [4] 16 µM | [5] 4.53 µM | [6] 2.88 µM | [15] 2.59 µM | [7] 4.27 µM | [8] 15.1 µM | [9] 4.62 µM | [10] 2.36 µM | [11] 4.85 µM | [12] 6.27 µM | [13] 1.64 µM | [14] 3.86 µM

Cc1ccc(S(=O)(=O)NC(CO)C(=O)O)cc1 (stereo not drawn)
inactive: [1] > 100 µM | [2] > 100 µM | [3] > 100 µM | [4] > 100 µM | [5] > 100 µM | [6] > 100 µM | [15] > 100 µM | [7] > 100 µM | [8] > 100 µM | [9] > 100 µM | [10] > 100 µM | [11] > 100 µM | [12] > 100 µM | [13] > 100 µM | [14] > 100 µM

C=C(C[C@@H](O)[C@H](C)NC(=O)OCc1ccccc1)C(=O)OC(C)(C)C
inactive: [2] > 100 µM | [3] 95.9 µM | [4] > 100 µM | [5] > 100 µM | [6] 26.3 µM | [15] > 100 µM | [7] 35.9 µM | [8] > 100 µM | [9] 29.7 µM | [10] 46.2 µM | [11] 38.6 µM | [12] 78.2 µM | [13] 13.1 µM | [14] > 100 µM

Nc1nc(Cl)cc(NC2(CO)CCC2)n1
inactive: [1] > 100 µM | [2] > 100 µM | [3] > 100 µM | [4] > 100 µM | [5] > 100 µM | [6] > 100 µM | [15] > 100 µM | [7] > 100 µM | [8] > 100 µM | [9] > 100 µM | [10] > 100 µM | [11] > 100 µM | [12] > 100 µM | [13] > 100 µM | [14] > 100 µM

NC1c2c(Br)sc(N3CCCC3)c2C(=O)C1O (stereo not drawn)
inactive: [1] > 50 µM | [2] > 50 µM | [3] > 50 µM | [4] 36.6 µM | [5] > 50 µM | [6] > 50 µM | [15] 26.2 µM | [7] > 50 µM | [8] 29.1 µM | [9] > 50 µM | [10] > 50 µM | [11] > 50 µM | [12] > 50 µM | [13] > 50 µM | [14] > 50 µM
